Test results taken from publication PMC11770821, “Pharmacokinetics and pharmacodynamics of an innovative psychedelic N,N-dimethyltryptamine/harmine formulation in healthy participants: a randomized controlled trial” (International Journal of Neuropsychopharmacology, 2025).

Legend:
healthy male volunteers [1] = test: Undesired drug effects / adverse events questionnaire (y/n and VAS 0–100); assay type: in vivo, human
Experimental: The participants were monitored with regard to AEs throughout the experiment by the study physician, including questionnaire-based assessments (VAS, 0-100 or y/n) of physical and mental discomfort, breathing difficulties, racing heartbeat, chest or abdominal pains, unpleasant body sensations/muscle pain, headache, nausea, vomiting, and fainting at baseline (−105), 0, 30, 60, 120, 240, and 300 minutes after DMT/placebo administration. Vital signs (systolic/diastolic blood pressure [DBP], heart rate, body temperature [BT]) were assessed using a semiautomatic blood pressure and oral temperature recording device throughout the study at baseline (−45), 0, 30, 120, 150, 210, and 270 minutes after the first DMT/placebo administration.

healthy male volunteers [2] = test: Acute subjective drug effects, visual analog scales (VAS 0–100); assay type: in vivo, human; conditions: for subjective ratings of acute drug effects compared to placebo: 100 mg buccal harmine alone vs placebo
Experimental: The detailed dosing scheme is depicted in Figure 1.
The intensity of acute subjective effects was monitored with visual analog scales (VASs, range 0–100) on a touchscreen tablet throughout the study day at baseline (−90), 0, 30, 60, 90, 120, 180, 240, and 300 after the first DMT/placebo administration. At 360 minutes after the first DMT/placebo administration, a phenomenological interview was conducted with participants to further explore acute subjective drug effects. For PK-PD analyses, we included VAS for intensity, liking, disliking, and arousal in the present paper. Further analyses on a set of neurophysiological, psychometric, and phenomenological assessments will be presented in forthcoming manuscripts.

[3] = 180 min after first intranasal DMT/placebo administration
[4] = 240 min after first intranasal DMT/placebo administration
[5] = 300 min after first intranasal DMT/placebo administration
[6] = −105 min (baseline) relative to first intranasal DMT/placebo administration

## COc1ccc2c(c1)[nH]c1c(C)nccc12 [Harmine, harmine]
Healthy male volunteers [1]; [3]
  Psychological distress, number of participants reporting: 1
  Somatic distress, mean intensity [0–100] (SD): 13 (3)
  Somatic distress, number of participants reporting: 4
  Stomach ache, mean intensity [0–100] (SD): 0 (0)
  Stomach ache, number of participants reporting: 0
  Vomiting, mean intensity [0–100] (SD): 0 (0)
  Vomiting, number of participants reporting: 0
Healthy male volunteers [1]; [4]
  Breathing difficulty, mean intensity [0–100] (SD): 6 (0)
  Breathing difficulty, number of participants reporting: 1
  Chest pain, mean intensity [0–100] (SD): 1 (0)
  Chest pain, number of participants reporting: 1
  Fainting, mean intensity [0–100] (SD): 0 (0)
  Fainting, number of participants reporting: 0
  Head ache, mean intensity [0–100] (SD): 27 (0)
  Head ache, number of participants reporting: 1
  Heart racing, mean intensity [0–100] (SD): 3 (0)
  Heart racing, number of participants reporting: 1
  Muscle ache, mean intensity [0–100] (SD): 21 (5)
  Muscle ache, number of participants reporting: 3
  Nausea, mean intensity [0–100] (SD): 2 (0)
  Nausea, number of participants reporting: 1
  Psychological distress, mean intensity [0–100] (SD): 3 (1)
  Psychological distress, number of participants reporting: 2
  Somatic distress, mean intensity [0–100] (SD): 16 (12)
  Somatic distress, number of participants reporting: 4
  Stomach ache, mean intensity [0–100] (SD): 32 (44)
  Stomach ache, number of participants reporting: 2
  Vomiting, mean intensity [0–100] (SD): 0 (0)
  Vomiting, number of participants reporting: 0
Healthy male volunteers [1]; [5]
  Breathing difficulty, mean intensity [0–100] (SD): 3 (0)
  Breathing difficulty, number of participants reporting: 1
  Chest pain, mean intensity [0–100] (SD): 0 (0)
  Chest pain, number of participants reporting: 0
  Fainting, mean intensity [0–100] (SD): 0 (0)
  Fainting, number of participants reporting: 0
  Head ache, mean intensity [0–100] (SD): 0 (0)
  Head ache, number of participants reporting: 0
  Heart racing, mean intensity [0–100] (SD): 49 (0)
  Heart racing, number of participants reporting: 1
  Muscle ache, mean intensity [0–100] (SD): 9 (11)
  Muscle ache, number of participants reporting: 2
  Nausea, mean intensity [0–100] (SD): 2 (1)
  Nausea, number of participants reporting: 2
  Psychological distress, mean intensity [0–100] (SD): 70 (0)
  Psychological distress, number of participants reporting: 1
  Somatic distress, mean intensity [0–100] (SD): 12 (5)
  Somatic distress, number of participants reporting: 3
  Stomach ache, mean intensity [0–100] (SD): 2 (0)
  Stomach ache, number of participants reporting: 1
  Vomiting, mean intensity [0–100] (SD): 0 (0)
  Vomiting, number of participants reporting: 0
Healthy male volunteers [1]; in vivo
  overall safety and tolerability of drug-induced AEs: mild and well tolerated
Healthy male volunteers [1]; [6]
  Breathing difficulty, mean intensity [0–100] (SD): 12 (15)
  Breathing difficulty, number of participants reporting: 2
  Chest pain, mean intensity [0–100] (SD): 0 (0)
  Chest pain, number of participants reporting: 0
  Fainting, mean intensity [0–100] (SD): 0 (0)
  Fainting, number of participants reporting: 0
  Head ache, mean intensity [0–100] (SD): 8 (7)
  Head ache, number of participants reporting: 3
  Heart racing, mean intensity [0–100] (SD): 9 (6)
  Heart racing, number of participants reporting: 3
  Muscle ache, mean intensity [0–100] (SD): 11 (9)
  Muscle ache, number of participants reporting: 5
  Nausea, mean intensity [0–100] (SD): 6 (0)
  Nausea, number of participants reporting: 1
  Psychological distress, mean intensity [0–100] (SD): 13 (8)
  Psychological distress, number of participants reporting: 4
  Somatic distress, mean intensity [0–100] (SD): 17 (12)
  Somatic distress, number of participants reporting: 7
  Stomach ache, mean intensity [0–100] (SD): 12 (15)
  Stomach ache, number of participants reporting: 2
  Vomiting, mean intensity [0–100] (SD): 0 (0)
  Vomiting, number of participants reporting: 0
Healthy male volunteers [2]
  subjective ratings of acute drug effects compared to placebo: no statistical differences
Healthy male volunteers [2]; listed as HAR
  subjective ratings of acute drug effects compared to placebo: no significant difference
Healthy male volunteers [2]; at 90 minutes (max. intensity ratings)
  effect size, intensity ratings, contrast vs PLA: 0.133
Healthy male volunteers [2]; at 240 minutes
  effect size, intensity ratings, contrast vs PLA: 0.127
Healthy male volunteers [2]; mean (SD)
  peak effects of arousal, VAS: 9.9 % of the maximal possible scor
  peak effects of disliking, VAS: 7.8 % of the maximal possible scor
  peak effects of liking, VAS: 20.0 % of the maximal possible scor
  peak intensity, VAS: 7.6 % of the maximal possible scor
